Ki data for 13 compounds are collected here from patent US9221839B2, “C5-C6 oxacyclic-fused thiadiazine dioxide compounds as BACE inhibitors, compositions, and their use” (Merck Sharp & Dohme Corp., priority 2011, dated 2015).

For assay [1], the target named is soluble human BACE1 catalytic domain (Homo sapiens (Human), UniProt P56817). Nature of the assay: BACE1 HTRF FRET Assay. The format is biochemical. Conditions: Ki calculated from IC50 using the Cheng-Prusoff equation. The source says:
Na^+-Acetate pH 5.0; 1% Brij-35; Glycerol; Dimethyl Sulfoxide (DMSO); Recombinant human soluble BACE1 catalytic domain (>95% pure); APP Swedish mutant peptide substrate (QSY7-APP^swe-Eu): QSY7-[…]-Europium-amide.
A homogeneous time-resolved FRET assay can be used to determine IC50 values for inhibitors of the soluble human BACE1 catalytic domain. This assay monitors the increase of 620 nm fluorescence that resulted from BACE1 cleavage of an APPswedish APP^swe mutant peptide FRET substrate (QSY7-[…]-Europium-amide). This substrate contains an N-terminal QSY7 moiety that serves as a quencher of the C-terminal Europium fluorophore (620 nm Em). In the absence of enzyme activity, 620 nm fluorescence is low in the assay and increased linearly over 3 hours in the presence of uninhibited BACE1 enzyme Inhibition of BACE1 cleavage of the QSY7-APP^swe-Eu substrate by inhibitors is manifested as a suppression of 620 nm fluorescence.
Reactions are initiated by addition of 10 μl of 600 nM QSY7-APP^swe-Eu substrate (200 nM final) to give a final reaction volume of 30 μl in a 384 well Nunc HTRF plate. The reactions are incubated at 30° C. for 1.5 hours. The 620 nm fluorescence is then read on a Rubystar HTRF plate reader (BMG Labtechnologies) using a […] delay followed by a 400 millisecond acquisition time window. Inhibitor IC50 values are derived from non-linear regression analysis of concentration response curves.

For assay [2], the target named is purified human autoBACE-2 (Homo sapiens, UniProt Q9Y5Z0). The experiment in a line: BACE-2 Assay (BACE-HTRF assay). The format is biochemical. To be noted: Ki calculated from IC50 using the Cheng-Prusoff equation; read-out: BACE2 Ki. On the procedure: Following laser excitation of sample wells at 320 nm, the fluorescence signal at 620 nm is collected for 400 ms following a 50 μs delay on a RUBYstar HTRF plate reader (BMG Labtechnologies). Raw RFU data is normalized to maximum (1.0 nM BACE/DMSO) and minimum (no enzyme/DMSO)RFU values. […] The Ki values are calculated from the IC50 using the Cheng-Prusoff equation.
Chain of purified human autoBACE-2 (Q9Y5Z0 63-518 limits assumed): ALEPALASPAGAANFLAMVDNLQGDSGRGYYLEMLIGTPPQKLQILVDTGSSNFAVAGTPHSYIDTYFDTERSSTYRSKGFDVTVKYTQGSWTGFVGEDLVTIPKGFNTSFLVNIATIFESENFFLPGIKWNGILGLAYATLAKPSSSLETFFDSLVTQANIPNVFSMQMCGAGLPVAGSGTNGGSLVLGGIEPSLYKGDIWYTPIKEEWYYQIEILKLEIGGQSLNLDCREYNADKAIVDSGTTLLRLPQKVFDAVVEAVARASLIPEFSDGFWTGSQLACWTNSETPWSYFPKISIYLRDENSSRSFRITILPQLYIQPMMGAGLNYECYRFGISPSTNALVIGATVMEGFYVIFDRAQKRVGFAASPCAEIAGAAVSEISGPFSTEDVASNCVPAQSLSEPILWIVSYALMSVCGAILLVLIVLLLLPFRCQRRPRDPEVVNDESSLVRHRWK

Chain of soluble human BACE1 catalytic domain (P56817 75-416): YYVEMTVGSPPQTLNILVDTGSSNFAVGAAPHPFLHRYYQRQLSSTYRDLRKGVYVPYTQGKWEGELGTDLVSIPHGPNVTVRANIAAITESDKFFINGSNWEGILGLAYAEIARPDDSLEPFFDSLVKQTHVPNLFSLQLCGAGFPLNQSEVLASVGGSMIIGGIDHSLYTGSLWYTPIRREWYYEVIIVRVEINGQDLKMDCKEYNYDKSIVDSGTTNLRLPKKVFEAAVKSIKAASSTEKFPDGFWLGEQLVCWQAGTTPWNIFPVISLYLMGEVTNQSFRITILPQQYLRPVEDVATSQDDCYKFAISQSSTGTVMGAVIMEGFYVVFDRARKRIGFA

For orientation: Ki means a measure of affinity in units of concentration, obtained from inhibition or displacement. With `CN1C(=N)N[C@@]2(c3cc(NC(=O)c4ccc(F)cn4)ccc3F)COC[C@H]2S1(=O)=O` [Example 1], the Ki in assay [1] was 13 nM; in assay [2], 1.9 nM.

On to `CN1C(=N)N[C@]2(c3cc(NC(=O)c4ccc(F)cn4)ccc3F)COC[C@@H]2S1(=O)=O` [Example 1a], for which the Ki in assay [1] is 3530 nM; in assay [2] it was 491 nM.

Regarding `COc1ccc(C(=O)Nc2ccc(F)c([C@]34COC[C@H]3S(=O)(=O)N(C)C(=N)N4)c2)nc1` [Example 3], the values for the Ki in assay [1] and in assay [2] were 18.2 nM and 8.2 nM, respectively.

Regarding `COc1ccc(C(=O)Nc2ccc(F)c([C@@]34COC[C@@H]3S(=O)(=O)N(C)C(=N)N4)c2)nc1` [Example 3a], the Ki in assay [1] was 872 nM; in assay [2], 476 nM.

Consider `COc1cnc(C(=O)Nc2ccc(F)c([C@]34COC[C@H]3S(=O)(=O)N(C)C(=N)N4)c2)cn1` [Example 4], for which the Ki is 54.1 nM in assay [1] and 48.4 nM in assay [2].

For the compound `COc1cnc(C(=O)Nc2ccc(F)c([C@@]34COC[C@@H]3S(=O)(=O)N(C)C(=N)N4)c2)cn1` [Example 4a], the Ki in assay [1] was 1330 nM; in assay [2] it was 1510 nM.

On to `CN1C(=N)N[C@@]2(c3cc(NC(=O)c4ccc(Cl)cn4)ccc3F)COC[C@H]2S1(=O)=O` [Example 5], for which the Ki in assay [1] is 5.07 nM; in assay [2], 1.3 nM.

`CN1C(=N)N[C@]2(c3cc(NC(=O)c4ccc(Cl)cn4)ccc3F)COC[C@@H]2S1(=O)=O` [Example 5a]: the Ki was 197 nM in assay [1] and 55.2 nM in assay [2].

With `CN1C(=N)N[C@@]2(c3cc(NC(=O)c4ccc(C(F)(F)F)cn4)ccc3F)COC[C@H]2S1(=O)=O` [Example 6], the Ki in assay [1] is 9.79 nM; in assay [2] it was 19.5 nM.

In the case of `CN1C(=N)N[C@]2(c3cc(NC(=O)c4ccc(C(F)(F)F)cn4)ccc3F)COC[C@@H]2S1(=O)=O` [Example 6a], the values for the Ki in assay [1] and in assay [2] were 354 nM and 473 nM, respectively.

Consider `CN1C(=N)N[C@@]2(c3cc(NC(=O)c4cnc(C(F)(F)F)cn4)ccc3F)COC[C@H]2S1(=O)=O` [Example 6d], for which the Ki in assay [1] is 28.4 nM; in assay [2], 55 nM.

With `COc1cnc(C(=O)Nc2ccc(F)c([C@]34COC[C@H]3S(=O)(=O)N(C)C(=N)N4)c2)c(F)c1` [Example 6e], the Ki in assay [1] is 15.8 nM; in assay [2], 6.9 nM.

With `CN1C(=N)NC2(c3ccccc3F)COCC2S1(=O)=O` (centres unmarked) [Example 6f], the results for the Ki in assay [1] and in assay [2] were 7850 nM and 4200 nM, respectively.
